Patent US20060094721A9, “Sulfonamides as potassium channel blockers” (Icagen, Inc., priority 2002, published 2006)

Each molecule was assayed against T1, intermediate conductance, calcium activated potassium channel (Gardos channel) in red blood cells (Homo sapiens, UniProt O15554) (assay: 86Rb flux assay for inhibition of the Gardos channel in red blood cells (Example 4)). Settings: CaCl2 and A23187.
T1 construct: endogenous in cells; host or cells: red blood cells from heparinized whole blood
Format: cell-based
Procedure: Activities for selected compounds of the invention were determined using the assay set forth in Example 4, and are presented in Table 1.
Example 4 illustrates the use of a rubidium flux assay to determine the activity of the compounds of the invention.
Example 4 describes a bioassay for measuring the inhibition of a calcium activated potassium channel, the Gardos channel, in red blood cells by the compounds of the invention.
Heparinized whole blood was washed three times with Modified Flux Buffer (MFB: 140 mM NaCl; 5 mM KCl; 10 mM Tris; 0.1 mM EGTA; pH=7.4). Red blood cells (“RBCs”) at an approximate 10% hematocrit. Washed cells were then incubated for 3 hours with ^86Rb (5 μCi/mL). After this incubation period, the RBCs were washed three times with cold MFB. Washed ^86Rb loaded RBCs were then incubated with a test compound of the invention for 10 minutes. ^86Rb flux was then initiated by the addition of 10 μL/mL of a MFB solution containing 10 mM CaCl2 and 100 μM A23187, a calcium ionophore. This yielded a final concentration of 100 μM CaCl2 and […] A23187 n the incubation medium. Cells were incubated for 10 minutes, spun down and the supernatant was removed. Samples were counted in a Wallace Microbeta liquid scintillation counter by Cerenkov emission. Total RBC ^86Rb content was determined by lysing the RBCs with water and then precipitating protein using a 50:50 mixture of ethanol:chloroform. After a 20 minute microfuge spin, the aqueous and organic layers separated and the aqueous layer was removed and counted. Efflux is expressed as a percentage of the initial cell content of ^86Rb.

Row | Structure (SMILES) | Activity (relative potencies in the intermediate conductance, calcium activated potassium channel blocker assay, IC50 class)
1 | COC(=O)C1=C(NS(=O)(=O)c2cccc(C(F)(F)F)c2)CCCC1 [Compound 31, 2-(3-trifluoromethyl-benzenesulfonylamino)-cyclohex-1-enecarboxylic Acid Methyl Ester] | ++ (++ represents 2 μM < IC50 < 0.5 μM)
2 | O=S(=O)(Nc1ccccc1-c1ncco1)c1cccc(C(F)(F)F)c1 [Compound 74, N-(2-Oxazol-2-yl-phenyl)-3-trifluoromethyl-benzenesulfonamide] | ++ (++ represents 2 μM < IC50 < 0.5 μM)
3 | Cc1noc(-c2ccccc2NS(=O)(=O)c2cccc(C(F)(F)F)c2)n1 [Compound 82, N-[2-(3-methyl-[1,2,4]oxadiazol-5-yl)-phenyl]-3-trifluoromethyl-benzenesulfonamide] | ++ (++ represents 2 μM < IC50 < 0.5 μM)
4 | COc1noc(-c2ccccc2NS(=O)(=O)c2cccc(C(F)(F)F)c2)n1 [Compound 83, N-[2-(3-methoxy-[1,2,4]oxadiazol-5-yl)-phenyl]-3-trifluoromethyl-benzenesulfonamide] | ++ (++ represents 2 μM < IC50 < 0.5 μM)
5 | COC(=O)c1ccccc1CS(=O)(=O)c1cccc(C(F)(F)F)c1 [Compound 95, 2-(3-Trifluoromethyl-benzenesulfonylmethyl)-benzoic Acid Methyl Ester] | ++ (++ represents 2 μM < IC50 < 0.5 μM)
6 | COC(=O)c1ccccc1CSc1cccc(C(F)(F)F)c1 [Compound 96, 2-(3-Trifluoromethyl-phenylsulfanylmethyl)-benzoic Acid Methyl Ester] | + (+ Represents 10 μM < IC50 < 2 μM)

Same assay, conditions: CaCl2 and A23187, read-out: Activity (relative potencies in the intermediate conductance, calcium activated potassium channel blocker assay, IC50 class)

Row | Structure (SMILES) | IC50 [nM]
7 | COc1ccc(NS(=O)(=O)c2cccc(C(F)(F)F)c2)c(-c2ncco2)c1 [Compound 40, N-(4-Methoxy-2-oxazol-2-yl-phenyl)-3-trifluoromethyl-benzenesulfonamide] | < 500
8 | COc1cc(NS(=O)(=O)c2cccc(C(F)(F)F)c2)c(-c2nc(C)no2)cc1OC [Compound 41, N-[4,5-dimethoxy-2-(3-methyl-[1,2,4]oxadiazol-5-yl)-phenyl]-3-trifluoromethyl-benzenesulfonamide] | < 500
9 | O=S(=O)(Nc1ccccc1-c1ccco1)c1cccc(C(F)(F)F)c1 [Compound 76, N-(2-furan-2-yl-phenyl)-3-trifluoromethyl-benzenesulfonamide] | < 500
